Experimental data as given in PubChem BioAssay (NCI).
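GI50 is the concentration that inhibits growth by half. TGI denotes the concentration required for complete inhibition of growth.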

Assays:
Assay in all cases: NCI anticancer screen, dose series, 384-well format
[1] = test system: 786-0 renal
[2] = test system: A498 renal
[3] = test system: A549 NSCLC
[4] = test system: ACHN renal
[5] = test system: BT-549 breast
[6] = test system: CAKI-1 renal
[7] = test system: CCRF-CEM leukemia
[8] = test system: COLO 205 colon
[9] = test system: DU-145 prostate
[10] = test system: EKVX NSCLC
[11] = test system: HCC-2998 colon
[12] = test system: HCT-116 colon
[13] = test system: HCT-15 colon
[14] = test system: HL-60(TB) leukemia
[15] = test system: HOP-62 NSCLC
[16] = test system: HOP-92 NSCLC
[17] = test system: HS 578T breast
[18] = test system: IGROV1 ovarian
[19] = test system: K-562 leukemia
[20] = test system: LOX IMVI melanoma
[21] = test system: M14 melanoma
[22] = test system: MALME-3M melanoma
[23] = test system: MCF7 breast
[24] = test system: MDA-MB-231 breast
[25] = test system: MDA-MB-435 melanoma
[26] = test system: MDA-MB-468 breast
[27] = test system: MOLT-4 leukemia
[28] = test system: NCI-H226 lung
[29] = test system: NCI-H23 lung
[30] = test system: NCI-H322M lung
[31] = test system: NCI-H460 NSCLC
[32] = test system: NCI-H522 lung
[33] = test system: NCI/ADR-RES ovarian
[34] = test system: OVCAR-3 ovarian
[35] = test system: OVCAR-4 ovarian
[36] = test system: OVCAR-8 ovarian
[37] = test system: PC-3 prostate
[38] = test system: RPMI-8226 leukemia
[39] = test system: RXF 393 renal
[40] = test system: SF-268 CNS
[41] = test system: SF-539 CNS
[42] = test system: SK-MEL-28 melanoma
[43] = test system: SK-MEL-5 melanoma
[44] = test system: SK-OV-3 ovarian
[45] = test system: SN12C renal
[46] = test system: SNB-19 CNS
[47] = test system: SNB-75 CNS
[48] = test system: SR leukemia
[49] = test system: SW-620 colon
[50] = test system: T-47D breast
[51] = test system: TK-10 renal
[52] = test system: U251 glioblastoma
[53] = test system: UACC-257 melanoma
[54] = test system: UACC-62 melanoma
[55] = test system: UO-31 renal

Which results are given for `COc1cc(OC)cc(N2CCN(C(=O)Nc3nc4cc(F)ccc4nc3OC)CC2)c1`?
GI50 [1]: 0.0284 µM; TGI [1]: 0.267 µM; GI50 [2]: < 0.01 µM; TGI [2]: 0.0966 µM; GI50 [3]: 0.0382 µM; TGI [3]: 18.5 µM; GI50 [4]: 0.0657 µM; TGI [4]: 20.2 µM; GI50 [5]: 0.0237 µM; TGI [5]: 0.0685 µM; GI50 [6]: 0.0158 µM; TGI [6]: 15.1 µM; GI50 [7]: 0.0187 µM; TGI [7]: 0.0333 µM; GI50 [8]: 0.0277 µM; TGI [8]: 0.0848 µM; GI50 [9]: 0.0347 µM; TGI [9]: 0.249 µM; GI50 [10]: 0.0275 µM; TGI [10]: 14.6 µM; GI50 [11]: 0.0207 µM; TGI [11]: 0.0769 µM; GI50 [12]: 0.0312 µM; TGI [12]: 0.151 µM; GI50 [13]: 0.0224 µM; TGI [13]: 1.18 µM; GI50 [14]: 0.0165 µM; TGI [14]: 0.0306 µM; GI50 [15]: 0.0218 µM; TGI [15]: 1.7 µM; GI50 [16]: 0.0483 µM; TGI [16]: 15.6 µM; GI50 [17]: 0.017 µM; TGI [17]: 0.0356 µM; GI50 [18]: 0.0425 µM; TGI [18]: 15 µM; GI50 [19]: 0.0174 µM; TGI [19]: 0.0433 µM; GI50 [20]: 0.0398 µM; TGI [20]: 0.38 µM; GI50 [21]: 0.0157 µM; TGI [21]: 0.0382 µM; GI50 [22]: 0.0247 µM; TGI [22]: 14.8 µM; GI50 [23]: 0.0262 µM; TGI [23]: 5.57 µM; GI50 [24]: 0.0545 µM; TGI [24]: 84.7 µM; GI50 [25]: < 0.01 µM; TGI [25]: 0.0212 µM; GI50 [26]: 0.0161 µM; TGI [26]: 0.0321 µM; GI50 [27]: 0.0182 µM; TGI [27]: 0.0328 µM; GI50 [28]: 0.0186 µM; TGI [28]: 0.0708 µM; GI50 [29]: 0.0207 µM; TGI [29]: 0.0554 µM; GI50 [30]: 0.064 µM; TGI [30]: 37.6 µM; GI50 [31]: 0.0211 µM; TGI [31]: 0.0487 µM; GI50 [32]: < 0.01 µM; TGI [32]: 0.022 µM; GI50 [33]: 0.014 µM; TGI [33]: 0.0321 µM; GI50 [34]: 0.0121 µM; TGI [34]: 0.0314 µM; GI50 [35]: 0.314 µM; TGI [35]: 31.7 µM; GI50 [36]: 0.0276 µM; TGI [36]: 0.0912 µM; GI50 [37]: 0.0254 µM; TGI [37]: 15.2 µM; GI50 [38]: 0.017 µM; TGI [38]: 0.0318 µM; GI50 [39]: < 0.01 µM; TGI [39]: 0.0219 µM; GI50 [40]: 0.0304 µM; TGI [40]: 0.415 µM; GI50 [41]: 0.0182 µM; TGI [41]: 0.0495 µM; GI50 [42]: 0.12 µM; TGI [42]: 22.3 µM; GI50 [43]: 0.0131 µM; TGI [43]: 0.0453 µM; GI50 [44]: 0.0351 µM; TGI [44]: 11.7 µM; GI50 [45]: 0.028 µM; TGI [45]: 16.2 µM; GI50 [46]: 0.0363 µM; TGI [46]: 12.8 µM; GI50 [47]: 0.0234 µM; TGI [47]: 0.127 µM; GI50 [48]: < 0.01 µM; GI50 [49]: 0.0365 µM; TGI [49]: 18.8 µM; GI50 [50]: 0.0554 µM; TGI [50]: 19.6 µM; GI50 [51]: 0.0571 µM; TGI [51]: 23.1 µM; GI50 [52]: 0.0327 µM; TGI [52]: 12.1 µM; GI50 [53]: 0.0372 µM; TGI [53]: 20.1 µM; GI50 [54]: < 0.01 µM; TGI [54]: 15 µM; GI50 [55]: 0.0513 µM; TGI [55]: 18.3 µM
